Source: patent US10953015B2, “Use of adenosine receptor signaling to regulate P-gp function” (CORNELL UNIVERSITY, priority 2016, dated 2021)

How the values were obtained:
P-gp [1] = assay: P-gp expression in intestinal organoids (mean fluorescence intensity); type: cell-based; conditions: organoids from C57BL6 mouse intestine; 1 μM; 15 minutes
Protocol: Freshly isolated intestines from wildtype […] mice were cultured and grown to confluency to generate Organoids, which are 3D organotypic cultures derived from primary intestinal tissues (either tissue subunits or single cells), embryonic stem cells (“ESCs”), and induced pluripotent stem cells (“iPSCs”). Organoids were treated with 1 μM Lexiscan® or A1193 (A2A AR agonist) for 15 minutes, washed, and stained with antibodies to P-gp and DAPI. Mean fluorescent intensity was measured in each organoid. Data presented as a measure of P-gp expression between the two agonists. *=significance where P<0.05.
Applicants next evaluated whether A2A AR agonists can modulate P-gp expression in gut epithelial cells. Freshly isolated intestines from wildtype C57BL6 mice were cultured and grown to confluency to generate Organoids, which are three-dimensional organotypic cultures derived from primary intestinal tissues (either tissue subunits or single cells), embryonic stem cells (“ESCs”), or induced pluripotent stem cells (“iPSCs”). Organoids were treated with the A2A AR agonists Lexiscan® or A1193 for 15 minutes, washed, and stained with antibodies to P-gp and DAPI.

P-gp and MMP9 = assay: Immunoprecipitation/IFA of P-gp with MMP9 in HBMVEC; type: cell-based, human; conditions: 1 μM for 5 minutes
Excerpt: FIG. 8A is a schematic diagram of the experimental procedure for analysis of Lexiscan®'s effect on P-gp solubility and excretion in primary brain endothelial cells (“HBMVEC”). FIGS. 8B-8C are western blots and graphs summarizing the experimental result of each western blot. FIGS. 8B-8C show the analysis of P-gp expression of HBMVEC upon activation with Lexiscan® at different time points after lysis with RIPA buffer (FIG. 8B) or CSK buffer to measure P-gp levels in the cytoskeletal fraction (FIG. 8C). Band intensity was normalized to GAPDH and graphed. […] Band intensity was normalized using GAPDH and plotted. FIG. 8E is a western blot of secreted P-gp in HBMVEC upon activation with Lexiscan® in absence or presence of an MMP9 inhibitor: both short and long exposures of western blot from MMP9 inhibitor-treated samples are shown. Band intensity was plotted as a graph. FIG. 8F is a western blot showing the results of an Immunoprecipitation assay of MMP9 with lysate from HBMVEC treated with vehicle (control) or 1 μM of Lexiscan® for 5 minutes. P-gp was pulled down using anti-P-gp antibody and immunoblotted with an anti-MMP9 antibody. […] FIG. 8H is a graph summarizing the intensity of fluorescence of MMP9 from FIG. 8G. Fluorescent intensity of MMP9 was quantified and plotted as graph (n=20). **P<0.01 (2-tailed Student's t test, 1 representative result of 3 different experiments). […]

P-gp [2] = assay: Rho123 accumulation in MCF7 breast cancer cells; type: cell-based, human; conditions: 0.025 μM Lexiscan® concomitant with Rho123, vs vehicle control
P-gp [3] = biological target: T1, P-gp (Homo sapiens, UniProt P08183); assay: Rho123 uptake assay in primary human brain endothelial cells (HBMVEC); type: cell-based; conditions: agonist 1 μM, Rho123 2.5 μM
T1 construct: in human primary brain endothelial cells, HBMVEC, high P-gp expression was observed; host or cells: HBMVEC (primary human brain endothelial cells)
T1 sequence (P08183 whole entry): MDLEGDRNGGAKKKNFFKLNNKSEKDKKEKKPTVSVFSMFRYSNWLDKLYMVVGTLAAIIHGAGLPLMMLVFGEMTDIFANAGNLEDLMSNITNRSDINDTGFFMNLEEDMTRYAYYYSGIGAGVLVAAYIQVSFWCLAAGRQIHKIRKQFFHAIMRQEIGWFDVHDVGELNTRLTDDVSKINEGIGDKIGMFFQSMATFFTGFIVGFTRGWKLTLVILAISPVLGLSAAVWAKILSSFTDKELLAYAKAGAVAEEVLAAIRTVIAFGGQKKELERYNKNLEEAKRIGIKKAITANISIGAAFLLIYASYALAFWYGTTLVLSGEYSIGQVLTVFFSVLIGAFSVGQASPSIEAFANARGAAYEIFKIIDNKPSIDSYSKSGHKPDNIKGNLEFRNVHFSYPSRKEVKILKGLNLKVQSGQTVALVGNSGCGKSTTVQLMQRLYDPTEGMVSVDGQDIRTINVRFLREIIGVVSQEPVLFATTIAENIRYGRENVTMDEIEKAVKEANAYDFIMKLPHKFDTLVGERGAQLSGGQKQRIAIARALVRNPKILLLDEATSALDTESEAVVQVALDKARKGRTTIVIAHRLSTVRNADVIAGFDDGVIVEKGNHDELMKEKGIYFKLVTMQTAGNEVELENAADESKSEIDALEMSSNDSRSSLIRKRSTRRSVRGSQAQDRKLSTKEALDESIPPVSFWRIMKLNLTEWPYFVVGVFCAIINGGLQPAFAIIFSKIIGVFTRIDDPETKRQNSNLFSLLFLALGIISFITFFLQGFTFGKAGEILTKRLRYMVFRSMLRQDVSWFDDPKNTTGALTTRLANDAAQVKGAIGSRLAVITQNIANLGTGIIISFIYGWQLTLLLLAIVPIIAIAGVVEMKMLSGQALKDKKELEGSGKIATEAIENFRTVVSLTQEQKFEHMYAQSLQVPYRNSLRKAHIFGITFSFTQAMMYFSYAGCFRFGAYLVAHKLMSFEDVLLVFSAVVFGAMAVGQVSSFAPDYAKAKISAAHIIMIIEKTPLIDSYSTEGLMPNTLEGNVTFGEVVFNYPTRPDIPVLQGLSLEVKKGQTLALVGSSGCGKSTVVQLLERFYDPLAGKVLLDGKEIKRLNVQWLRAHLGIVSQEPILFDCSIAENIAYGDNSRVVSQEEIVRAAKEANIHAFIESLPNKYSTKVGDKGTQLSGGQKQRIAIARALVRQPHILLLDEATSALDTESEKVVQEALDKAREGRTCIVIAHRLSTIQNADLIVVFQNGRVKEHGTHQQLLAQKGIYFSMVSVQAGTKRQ
Protocol: Human brain endothelial cells and primary brain endothelial cells were plated onto 48-well plates until 100% confluence was reached, and media were replaced with fresh media containing Rho123 (2.5 μM) with different concentrations of Lexiscan®, NECA, or PSC833. Reaction was halted by adding 250 μl of ice-cold PBS. Plate was washed with 250 μl of ice-cold PBS 3 times and lysed with lysis buffer. Each sample was analyzed using Synergy Fluometer (Biotek), with excitation at 488 nm and emission at 523 nm. Concentration of Rho123 was analyzed using standard curve created by serial dilution of Rho123. Final concentration of Rho123 was normalized using protein concentration of lysate measured using Bradford assay (Bio-Rad). For microscopic analysis of Rho123 uptake, cells were cultured on coverslip and Rho123 was treated with or without Lexiscan® or NECA with DMSO as control. Reaction was terminated by adding ice-cold PBS and washed with ice-cold PBS 3 times. Cells were fixed with PFA and costained with anti-human P-gp. Cells were visualized with a Zeiss fluorescent microscope and captured with axiovision software. FIG. 4G is a schematic illustration of the Rho123 uptake assay.

| Structure (SMILES) | P-gp expression (mean fluorescent intensity) (P-gp [1]) | Interaction between P-gp and MMP9 (P-gp and MMP9) | Rho123 accumulation (P-gp [2]) | Rho123 uptake / P-gp function (P-gp [3]) |
| --- | --- | --- | --- | --- |
| CNC(=O)c1cnn(-c2nc(N)c3ncn([C@@H]4O[C@H](CO)[C@@H](O)[C@H]4O)c3n2)c1 [Lexiscan®, 1-[6-amino-9-[(2R,3R,4S,5R)-3,4-dihydroxy-5-(hydroxymethyl)oxolan-2-yl]purin-2-yl]-N-methylpyrazole-4-carboxamide] | significantly down-regulates P-gp expression in freshly isolated and cultured colonic organoids | induced rapid interaction between P-gp and MMP9 | significant Rho123 accumulation occurred by 15 minutes and 60 minutes |  |
| CCNC(=O)[C@H]1O[C@@H](n2cnc3c(N)ncnc32)[C@H](O)[C@@H]1O [NECA, (2S,3S,4R,5R)-5-(6-aminopurin-9-yl)-N-ethyl-3,4-dihydroxyoxolane-2-carboxamide] |  |  |  | showed a trend in P-gp suppression, but it did not reach statistical significance |
